Marks after values point to notes of the source that are not given here.

The subject of the experiment is MPTP-treated cynomolgus monkeys. The experiment is described as follows: post-mortem striatal dopamine and metabolite levels by HPLC, cynomolgus monkeys. Particulars: MPTP/GM1, average (S.D.). The format is in vivo. As for the experimental part: Post-mortem neurochemical examinations of striatal tissue were carried out for the determination of dopamine (DA) and relevant metabolites, e.g. homovanillic acid (HVA), and […] (DOPAC). DA and relevant metabolites striatal levels were quantified by electrochemical […] high pressure liquid chromatography (HPLC) (Schneider J. S., Brain Res., 24, 534, 1990).

Consider monosialoganglioside [GM1], for which the DA striatal level (Dorsolateral caudatum) is listed as 4.4(0.6)* ng/mg protein, the DA striatal level (Dorsolateral putamen) was 3.7(0.9) ng/mg protein, the DA striatal level (Ventromedial caudatum) was 12.9(2.8)* ng/mg protein and the DA striatal level (Ventromedial putamen) is listed as 11.2(4.1)* ng/mg protein. Moreover, the DOPAC striatal level is 2.7(0.3)* ng/mg protein (Dorsolateral caudatum), 2.1(0.8)* ng/mg protein (Dorsolateral putamen), 6.6(0.7)* ng/mg protein (Ventromedial caudatum) and 7.1(3.2)* ng/mg protein (Ventromedial putamen). The HVA striatal level (Dorsolateral caudatum) is 55.9(12.0)* ng/mg protein, the HVA striatal level (Dorsolateral putamen) is given as 51.9(9.4)* ng/mg protein, the HVA striatal level (Ventromedial caudatum) is 60.9(6.9)* ng/mg protein and the HVA striatal level (Ventromedial putamen) is listed as 100.3(11.9)* ng/mg protein.

The values are drawn from patent US6620792B1, “Pharmaceutical compositions containing monosialoganglioside GM1 or derivative thereof suitable for the treatment of parkinson's disease” (Fidia S.p.A., priority 1992, dated 2003).
